Assay results reported in PMC9032695, “Self-Assembled Alkylated Polyamine Analogs as Supramolecular Anticancer Agents” (Molecules, 2022).
“And” between values parts separate entries of the source, which are not always exact repeats. Equal entries are not always repeated. Where two headings read alike, the source gives them in different places.

Assays:
[1] = tested on: A549 cells; assay: CellTiter-Blue cell viability assay, A549; format: cell-based; settings: Homo sapiens, 24 h incubation
Experimental: (§1) The human non-small cell lung carcinoma cell lines A549 (ATCC CCL-185) were maintained in RPMI 1640 medium containing 9% bovine calf serum, penicillin, and streptomycin at 37 °C, 5% CO2. For all experiments, cells were seeded and allowed to attach overnight. The medium was then aspirated and replaced with that containing polyamine PG analogs at the indicated concentrations. Cells were incubated for the times indicated at 37 °C, 5% CO2. The HCT 116 (ATCC CCL-247) human colorectal carcinoma cell lines were grown in McCoy’s 5 A medium (Thermo Fischer Scientific, Waltham, MA, USA), supplemented with 10% FBS at 37 °C with 5% CO2 in a humidified chamber.
(§2) The cytotoxicity of the HPG analogs was evaluated in HCT116 and A549 cells by the Promega CellTiter Blue Cell viability assay. The cells were seeded in 96-well plates at a density of four thousand cells/well 24 h before the polyamine treatment. The original medium was replaced with serial dilutions of the PG analogs in a cell culture medium and incubated for another 24 h. The mixture of 100 μL cell culture medium and 20 μL CellTiter Blue reagent was added into each well after the removal of the media with polyamines. After 2 h of incubation, the fluorescence intensity [FI] was measured at λex/λem = 560/590 nm by a microplate reader (Molecular Devices, San Jose, CA, USA). The relative cell viability (%) was calculated as [FI]treated/[FI]untreated × 100. Polyamine concentration, causing a 50% decrease in the cell viability, was defined as IC50 and auto-calculated in GraphPad Prism 9.0.0 (Prism 9, San Diego, CA, USA) with the dose–response analysis.

[2] = tested on: HCT116 cells; assay: CellTiter-Blue cell viability assay, HCT116; format: cell-based; settings: Homo sapiens, HCT-116, 24 h incubation
Experimental: as §1, §2

[3] = Hydrodynamic size and zeta potential of self-assembled nanoparticles (DLS); format: physicochemical; settings: self-assembled in aqueous solution; for PDI: DLS; for Particle Size: hydrodynamic size by DLS
Experimental: To achieve self-assembly, each sample was dispersed in aqueous solution under sonication (Branson Ultrasonic, working frequency […] at room temperature) for 30 min. Thereafter, the sample was allowed to undergo self-assembly by keeping it undisturbed for another 30 min. The size and surface zeta potential of the self-assembled nanoparticles were analyzed using a Brookhaven NanoBrook (Holtsville, NY, USA) Omni particle size and zeta potential analyzer, respectively.

[4] = TEM imaging of self-assembled nanoparticles; format: physicochemical
Experimental: A 10 µL volume of nanoparticle dispersion was meticulously placed on a plasma-treated copper grid (carbon-coated). After 5 min, the excess volume of nanoparticles was absorbed by a regular filter paper. The grid was then stained with 2% phosphotungstic acid (6 µL) for 1 min, and, similarly, the excess staining solution was absorbed by a regular filter paper. The grid was then allowed to dry in air for another 5 min. The image was captured under an FEI-Tecnai G2 transmission electron microscope (Hillsboro, OR, USA) at 80 kV, equipped with an AMT digital imaging system (Woburn, MA, USA).

[5] = target: T1, purified recombinant human SMOX protein (Homo sapiens, UniProt Q9NWM0); assay: SMOX activity assay (luminol-based chemiluminescence); format: biochemical; settings: for IC50: purified recombinant human SMOX, pH 8.0, 37 °C; for fold activity compared to MDL72527, SMOX: ratio of IC50 values
T1 sequence (Q9NWM0 whole entry): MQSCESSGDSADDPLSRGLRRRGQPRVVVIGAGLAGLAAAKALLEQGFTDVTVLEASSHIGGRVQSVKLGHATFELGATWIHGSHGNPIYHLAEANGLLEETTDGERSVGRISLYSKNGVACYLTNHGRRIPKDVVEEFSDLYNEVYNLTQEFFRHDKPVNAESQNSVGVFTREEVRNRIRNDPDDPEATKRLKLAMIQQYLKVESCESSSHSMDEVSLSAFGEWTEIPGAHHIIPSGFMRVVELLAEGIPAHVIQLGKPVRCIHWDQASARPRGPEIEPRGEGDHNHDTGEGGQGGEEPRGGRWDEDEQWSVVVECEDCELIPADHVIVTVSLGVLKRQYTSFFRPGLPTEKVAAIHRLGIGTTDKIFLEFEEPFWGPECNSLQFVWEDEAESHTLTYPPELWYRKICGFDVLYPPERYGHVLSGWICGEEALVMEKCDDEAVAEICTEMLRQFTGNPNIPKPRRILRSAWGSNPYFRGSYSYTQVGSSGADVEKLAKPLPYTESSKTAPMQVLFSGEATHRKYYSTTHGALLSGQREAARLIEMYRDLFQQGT
Experimental: SMOX activity was measured using a chemiluminescent enzyme-based assay, detecting the formation of H2O2 in the presence of HPG analogs as the substrate, as described. To measure the activity of these polyamines against SMOX, the enzyme (300 ng) in 0.083 M glycine buffer (pH 8.0) and the inhibitor (0–250 µM) were added to the luminol-HRP master mix and incubated at 37 °C for 2 min. PG was then added to the reaction mixture at a final concentration of 250 µM, vortexed for 3 s, and chemiluminescence was integrated over 40 s. Data were averaged and normalized to the blank reaction (no inhibitor) as % SMOX activity. Inactivated SMOX served as a negative control and was accounted for in the calculations.

[6] = target: T1, purified recombinant human SMOX protein; parameters: method as in PMID 33173604; settings: purified enzyme, reference inhibitor, ref [21], cited from earlier work
[7] = tested on: small (NCI H82 and H69) and non-small (NCI A549 and H157) lung cancer cells; parameters: method as in PMID 18301893; settings: ref [9]; cited from earlier work
[8] = tested on: A549 xenograft; parameters: method as in PMID 17464296, PMID 18301893, PMID 19487545; settings: in vivo A549 xenograft model; ref [1],[9],[10]; cited from earlier work
[9] = tested on: colon cancer cells; parameters: method as in PMID 19487545; settings: ref [10]; cited from earlier work

Row | SMILES | IC50 [1] [µM] | IC50 [2] [µM] | PDI [3] | Particle Size [3] | Particle Size ([3]; listed as HPG2) | Zeta Potential [3] [mV] | average size obtained from TEM [4] [nm] | IC50 [5] [µM] | fold activity compared to MDL72527, SMOX [5] | IC50 [6] [µM] | IC50 ([6]; listed as MDL 72,527) [µM] | growth inhibition of lung cancer cells in vitro [7] | progression of established tumors [8] | anticancer activity in colon cancer cells [9]
1 | CCCCNCCCNC/C=C\CNCCCNCCCC [HPG-3, (Z)-N^1,N^1′-(but-2-ene-1,4-diyl)bis(N^3-butylpropane-1,3-diamine)] | > 10 | 8 | 0.064 | 186 ± 3 nm |  | 24 |  |  |  |  |  |  |  | 
2 | CCCCCNCCCNC/C=C\CNCCCNCCCCC [HPG-4, (Z)-N^1,N^1′-(but-2-ene-1,4-diyl)bis(N^3-pentylpropane-1,3-diamine)] | 10 | > 10 | 0.15 | 174 nm and 174 ± 3 nm |  | 15 | 6 |  |  |  |  |  |  | 
3 | CCCCCCNCCCNC/C=C\CNCCCNCCCCCC [HPG-5, (Z)-N^1,N^1′-(but-2-ene-1,4-diyl)bis(N^3-hexylpropane-1,3-diamine)] | 7 | 8 | 0.23 | 158 ± 4 nm |  | 16 |  | 90 |  |  |  |  |  | 
4 | C=C=CCNCCCCNCC=C=C [MDL72527] |  |  |  |  |  |  |  |  |  | 90 | ~90 |  |  | 
5 | CCNCCCNC/C=C\CNCCCNCC [PG11047, (Z)-N^1,N^1′-(but-2-ene-1,4-diyl)bis(N^3-ethylpropane-1,3-diamine)] | > 10 | 8 |  |  |  |  |  |  |  |  |  | inhibits the growth | significantly delay the progression of established tumors | broad spectrum of anticancer activity

Continued, in another order:

Row | IC50 [1] [µM] | IC50 [2] [µM] | PDI [3] | Particle Size [3] | Particle Size ([3]; listed as HPG2) | Zeta Potential [3] [mV] | average size obtained from TEM [4] [nm] | IC50 [5] [µM] | SMILES | fold activity compared to MDL72527, SMOX [5] | IC50 [6] [µM] | IC50 ([6]; listed as MDL 72,527) [µM] | growth inhibition of lung cancer cells in vitro [7] | progression of established tumors [8] | anticancer activity in colon cancer cells [9]
6 | < 1 | < 1 | 0.21 | 173 ± 7 nm | around 173 nm | 27 |  |  | CCCNCCCNC/C=C\CNCCCNCCC [HPG-2, (Z)-N^1,N^1′-(but-2-ene-1,4-diyl)bis(N^3-propylpropane-1,3-diamine)] |  |  |  |  |  | 
7 | 3 | 3 | 0.17 | 225 nm and 225 ± 6 nm |  | 22 | 8 | 30 | CCCCCCCNCCCNC/C=C\CNCCCNCCCCCCC [HPG-6, (Z)-N^1,N^1′-(but-2-ene-1,4-diyl)bis(N^3-heptylpropane-1,3-diamine)] |  |  |  |  |  | 
8 | < 1 | 1 | 0.13 | 318 ± 8 nm |  | 11 | 30 | < 10 | CCCCCCCCNCCCNC/C=C\CNCCCNCCCCCCCC [HPG-7, (Z)-N^1,N^1′-(but-2-ene-1,4-diyl)bis(N^3-octylpropane-1,3-diamine)] | around nine-fold more active than MDL 72,527 |  |  |  |  | 
9 | 7 | < 1 | 0.17 |  |  | 17 |  | < 10 | CCCCCCCCCNCCCNC/C=C\CNCCCNCCCCCCCCC [HPG-8, (Z)-N^1,N^1′-(but-2-ene-1,4-diyl)bis(N^3-nonylpropane-1,3-diamine)] | around nine-fold more active than MDL 72,527 |  |  |  |  | 
